Measured values reported in US20160106439A1, “PNEUMATIC TOURNIQUET” (BIONUMERIK PHARMACEUTICALS, INC., priority 2013, published 2016).
Residue numbers refer to the chain shown, from its start. Where two headings read alike, the source gives them in different places.

Key:
[1] = target: T1, E13K, D16K, E95K, E103K Thioredoxin (Homo sapiens, UniProt P10599, D16K/E103K/E13K/E95K); test: X-ray crystallography of Tavocept-derived mesna adduct on Trx; assay type: binding; conditions: 40 mM Tavocept
T1 construct: made in house; host or cells: E. coli BL21(DE3), pET-15b system
T1 sequence (P10599 1-105 E13K/D16K/E95K/E103K): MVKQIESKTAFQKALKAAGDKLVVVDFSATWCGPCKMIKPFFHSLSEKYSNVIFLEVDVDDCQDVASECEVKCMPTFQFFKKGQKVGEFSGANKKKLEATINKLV
Experimental: Adduct was prepared as described above with some modifications designed to increase the likelihood of success in crystallization of the protein. […] This reaction was incubated for 1 hour at 30° C. followed by overnight incubation at 4° C. […] Aliquots of this solution were analyzed by ESI LC-MS to confirm the presence of adduct(s) prior to initiation of crystallization experiments.
These initial broad screens produced crystals under a wide range of conditions (data not shown) and the screens used included: (i) PEGION, CRYSTALS HT, and PEGRX (Hampton Research) and (ii) JCSG and BASIC (JENA Biosciences). Multiple rounds of optimization were completed and included fine screens, varying the protein concentration and varying the protein to reservoir ratios to obtain diffraction quality crystals. In the Trx pH 9.0/8.5 structure (adduct formed at pH 9.0, crystals grown at pH 8.5), the best crystals were obtained in 20% ethanol, 0.1 M Tris (at 60 mg/mL Trx protein) and diffracted to 2.5 Å (C2 space group). In Trx pH 9.0/7.0 (adduct formed at pH 9.0, crystals grown at pH 7.0), the best crystals were obtained in 20% PEG3350, 0.2 M KCl (60 mg/mL Trx protein) and diffracted to 2.8 Å (C2 space group). In Trx pH 7.0/7.0 (adduct formed at pH 7.0, crystals grown at pH 7.0), the best crystals were obtained in 28% PEG3350, 0.2M KCl (160 mg/mL Trx protein) and diffracted to 1.85 Å resolution (P21 space group).
The solution obtained was consistent with four molecules in the crystal asymmetric unit. […] Molecules C and D were substantially rebuilt and the Tavocept-derived mesna adduct added after protein rebuilding was complete. The structure solution was supported by contiguous electron density for the entire chain trace of each molecule, landmark side chain density features matching the amino acid sequence including cysteines, absence of phi-psi violations, and final R/Rfree values in the normal range. […] For the Trx pH 9.0/8.5 structure, residual density observed near Cys69 of molecule A was modeled as a Tavocept-derived mesna adduct in a dual conformation. […]

[2] = target: γ-Glutamyltranspeptidase (Homo sapiens, UniProt P19440); test: γ-glutamyltranspeptidase enzyme activity (summary Table 27); assay type: biochemical
[3] = target: T2, TrxR/Trx system (Homo sapiens, UniProt P10599); test: NADPH oxidation by TrxR and Trx; assay type: biochemical; conditions: increasing concentrations of the substance
T2 construct: 6xHis (N); purchased Sigma (Trx); American Diagnostica (bovine TrxR)
T2 sequence (P10599 1-105): T1 sequence (P10599 1-105 E13K/D16K/E95K/E103K) with K13E, K16D, K95E, K103E

[4] = target: T3, bovine TrxR (Bos taurus, UniProt O62768); test: NADPH oxidation assay, Reaction A (TrxR alone); assay type: biochemical; conditions: without Trx, disulfide 0.5 mM
T3 construct: purchased American Diagnostica
Experimental: See, Luthman M and Holmgren A. Rat liver thioredoxin and thioredoxin reductase: purification and characterization. Biochemistry 21:6628-6633 (1982). A typical assay mixture contained buffer (50 mM potassium phosphate, pH 7.0, 1 mM EDTA), NADPH (200 μM), and bovine TrxR (1.6 μg, 0.138 μM). Assays were run with and without recombinant human Trx (4.8 μM). […] All disulfides were added to reactions as 10x solutions in buffer. The total volume of each reaction was 0.1 mL. Reactions were initiated by the addition of TrxR and were incubated at 25° C. for 40 minutes. Reactions were analyzed using a Molecular Devices SpectraMax Plus UV/vis plate reader and the activity was calculated using a 4 minute linear portion of each assay.

[5] = target: T790M EGFR kinase (Homo sapiens, UniProt P00533, T790M); test: T790M EGFR kinase assay (ADP-glo); assay type: biochemical
[6] = target: T4, Recombinant human Trx (Homo sapiens, UniProt P10599); test: Native PAGE of Trx incubated with Tavocept; assay type: binding; parameters: purchased Sigma (SigmaAldrich); host or cells: E. coli; conditions: Tavocept 10 mM, 37° C., 0-48 hours
T4 sequence (P10599 1-105): T1 sequence (P10599 1-105 E13K/D16K/E95K/E103K) with K13E, K16D, K95E, K103E
Experimental: Recombinant human Trx (1.5 mg, SigmaAldrich) was reduced using a vast excess of DTT (50 mM) in Tris buffer (100 mM, pH 8.0) at 37° C. for 50 minutes. […] (final reactions volumes were approximately 160 μL). At time selected times (0-48 hours), aliquots were removed and subjected to TrisGlycine Native or TrisGlycine SDS PAGE analysis. Gels were fixed in acetic acid/methanol and stained with Coomassie R-250.
Recombinant human Trx (1.5 mg) was reduced using a vast excess of DTT (50 mM) in Tris buffer (100 mM, pH 8.0) at 37° C. for 50 minutes. […] (final incubation reaction volumes were approximately 160 μL). At time selected times (0-48 hours), aliquots were removed and subjected to TrisGlycine Native or TrisGlycine SDS PAGE analysis. Gels were fixed in acetic acid/methanol and stained with Coomassie R-250.

[7] = target: T5, Peroxiredoxin (Prx) (Homo sapiens, UniProt Q06830); test: Peroxiredoxin activity (summary Table 27); assay type: biochemical; conditions: disrupts active site structure
T5 construct: purchased SigmaAldrich
T5 sequence (Q06830 whole entry): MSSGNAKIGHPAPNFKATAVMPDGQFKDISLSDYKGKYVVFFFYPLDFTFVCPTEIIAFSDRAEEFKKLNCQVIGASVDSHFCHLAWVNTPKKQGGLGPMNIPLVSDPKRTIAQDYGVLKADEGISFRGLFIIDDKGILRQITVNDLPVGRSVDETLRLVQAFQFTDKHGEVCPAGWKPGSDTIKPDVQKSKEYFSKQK

T790M EGFR kinase, sequence (P00533 25-1210 T790M): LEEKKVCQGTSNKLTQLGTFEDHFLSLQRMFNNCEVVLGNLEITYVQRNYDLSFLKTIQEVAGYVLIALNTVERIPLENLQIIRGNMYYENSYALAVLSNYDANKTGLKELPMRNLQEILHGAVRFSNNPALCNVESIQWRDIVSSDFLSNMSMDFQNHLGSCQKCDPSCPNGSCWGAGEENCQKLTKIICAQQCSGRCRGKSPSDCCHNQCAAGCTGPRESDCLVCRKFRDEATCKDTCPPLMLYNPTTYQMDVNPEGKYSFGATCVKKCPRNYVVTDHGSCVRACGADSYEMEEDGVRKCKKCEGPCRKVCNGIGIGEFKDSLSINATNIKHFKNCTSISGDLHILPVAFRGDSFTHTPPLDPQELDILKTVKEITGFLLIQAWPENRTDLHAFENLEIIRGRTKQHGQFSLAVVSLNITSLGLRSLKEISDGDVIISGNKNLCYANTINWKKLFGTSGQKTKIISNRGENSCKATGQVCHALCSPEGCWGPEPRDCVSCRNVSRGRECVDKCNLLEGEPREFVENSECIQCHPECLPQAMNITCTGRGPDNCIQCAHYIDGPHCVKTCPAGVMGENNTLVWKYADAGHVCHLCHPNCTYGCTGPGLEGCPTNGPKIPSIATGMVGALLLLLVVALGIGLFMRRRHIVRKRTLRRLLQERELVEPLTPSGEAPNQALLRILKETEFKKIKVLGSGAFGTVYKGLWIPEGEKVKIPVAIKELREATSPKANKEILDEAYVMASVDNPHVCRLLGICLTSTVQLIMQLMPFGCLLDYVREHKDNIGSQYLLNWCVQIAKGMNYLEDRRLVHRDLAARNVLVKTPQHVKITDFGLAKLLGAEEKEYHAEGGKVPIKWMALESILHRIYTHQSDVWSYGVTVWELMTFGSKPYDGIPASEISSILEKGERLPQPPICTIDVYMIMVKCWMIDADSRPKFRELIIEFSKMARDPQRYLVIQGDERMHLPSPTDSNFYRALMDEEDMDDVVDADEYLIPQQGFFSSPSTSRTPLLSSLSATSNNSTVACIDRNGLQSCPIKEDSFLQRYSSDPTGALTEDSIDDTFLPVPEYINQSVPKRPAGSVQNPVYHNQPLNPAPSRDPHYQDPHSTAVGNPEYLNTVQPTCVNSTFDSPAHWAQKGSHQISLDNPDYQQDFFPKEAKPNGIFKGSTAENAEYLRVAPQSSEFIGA
T3 sequence (O62768 whole entry): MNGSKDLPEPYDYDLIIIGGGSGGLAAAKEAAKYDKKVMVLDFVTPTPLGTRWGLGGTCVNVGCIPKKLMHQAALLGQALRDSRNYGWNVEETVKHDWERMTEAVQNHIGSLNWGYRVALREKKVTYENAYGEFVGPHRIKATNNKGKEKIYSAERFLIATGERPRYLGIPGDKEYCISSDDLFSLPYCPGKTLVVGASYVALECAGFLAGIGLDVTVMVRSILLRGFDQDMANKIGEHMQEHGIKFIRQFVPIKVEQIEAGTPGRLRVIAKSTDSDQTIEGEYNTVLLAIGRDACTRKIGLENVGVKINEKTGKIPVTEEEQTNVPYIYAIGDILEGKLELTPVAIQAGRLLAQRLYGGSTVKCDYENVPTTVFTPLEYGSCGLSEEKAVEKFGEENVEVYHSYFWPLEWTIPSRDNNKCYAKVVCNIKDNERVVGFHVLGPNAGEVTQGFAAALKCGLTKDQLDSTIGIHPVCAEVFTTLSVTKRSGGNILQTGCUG
γ-Glutamyltranspeptidase, sequence (P19440 whole entry): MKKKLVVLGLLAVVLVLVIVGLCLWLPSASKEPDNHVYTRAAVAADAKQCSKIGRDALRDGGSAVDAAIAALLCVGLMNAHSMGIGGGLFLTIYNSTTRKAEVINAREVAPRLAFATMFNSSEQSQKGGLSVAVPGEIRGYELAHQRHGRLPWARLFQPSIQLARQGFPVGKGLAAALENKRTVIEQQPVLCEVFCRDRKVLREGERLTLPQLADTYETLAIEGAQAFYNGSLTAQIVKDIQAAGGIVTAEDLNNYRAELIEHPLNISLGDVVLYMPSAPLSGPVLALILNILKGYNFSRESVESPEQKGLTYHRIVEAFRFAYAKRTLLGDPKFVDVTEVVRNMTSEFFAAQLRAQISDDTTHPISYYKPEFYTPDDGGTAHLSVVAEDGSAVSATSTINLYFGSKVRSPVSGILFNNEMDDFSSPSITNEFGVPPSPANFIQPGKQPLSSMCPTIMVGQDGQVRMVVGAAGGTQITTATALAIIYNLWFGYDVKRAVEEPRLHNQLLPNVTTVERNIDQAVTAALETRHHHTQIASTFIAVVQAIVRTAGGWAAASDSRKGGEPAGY

O=S(=O)([O-])CCSSCCS(=O)(=O)[O-].[Na+].[Na+] [Tavocept, disodium 2,2′-dithio-bis-ethane sulfonate]
Tavocept-derived mesna adduct sites on Trx ([1]; Trx pH 7.0/7.0 structure): clearly visible on Cys69 in both molecules A and B | Tavocept-derived mesna adduct sites on Trx ([1]; Trx pH 9.0/7.0 structure): clearly visible on both Cys69 and Cys62 in both molecules A and B | Tavocept-derived mesna adduct sites on Trx ([1]; Trx pH 9.0/8.5 structure): clearly visible on Cys69 in both molecules A and B | Effect on γ-glutamyltranspeptidase enzyme activity [2]: heteroconjugates can inhibit γ-glutamyl- | NADPH oxidation by TrxR and Trx [3]: increases | Reduction of disulfide by TrxR alone [4]: did not detectably reduce | potentiation of Erlotinib inhibition of T790M EGFR kinase ([5]; 10 μM ATP): strongly potentiated | IC50 ([5]; 10 μM ATP, read-out: IC50 on T790M EGFR kinase activity): > 40 mM | inhibition of T790M EGFR kinase ([5]; 10 μM or 100 μM ATP, physiological concentrations (<20 mM)): did not notably inhibit | IC50 ([5]; 100 μM ATP, read-out: IC50 on T790M EGFR kinase activity): > 40 mM | IC50 ([5]; read-out: IC50 on T790M EGFR kinase): > 40 mM | Tris-glycine native gel electrophoresis profile of Trx [6]: altered Tris-glycine native gel electrophoresis profile | Effect on Prx [7]: resulting in impaired enzyme activity
